“And” between values parts separate entries of the source, which are not always exact repeats. Equal values may be shown once.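 Cultured in 96-well plates, cells were exposed to test compound for 48 hours across five concentrations. GI50 marks 50% less growth. The concentration for full growth arrest is given as TGI.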
Key:
Experiment in all cases: NCI tumour cell line growth inhibition, 48 h
ACHN renal = tested on: ACHN renal
DU-145 prostate = tested on: DU-145 prostate
HCT-15 colon = tested on: HCT-15 colon
HT29 colon = tested on: HT29 colon
MDA-N = tested on: MDA-N
NCI-H460 lung = tested on: NCI-H460 lung
SF-295 CNS = tested on: SF-295 CNS
SF-539 CNS = tested on: SF-539 CNS
SNB-75 CNS = tested on: SNB-75 CNS
SR leukemia = tested on: SR leukemia

SMILES	TGI (ACHN renal)	TGI (DU-145 prostate)	TGI (HCT-15 colon)	TGI (HT29 colon)	TGI (MDA-N)	TGI (NCI-H460 lung)	TGI (SF-295 CNS)	TGI (SF-539 CNS)	TGI (SNB-75 CNS)	TGI (SR leukemia)	GI50 (HT29 colon)	GI50 (MDA-N)	GI50 (SF-295 CNS)	GI50 (SF-539 CNS)	GI50 (SR leukemia)
CC(Oc1ccccc1)C(=O)NNC(=O)OC(C)(C)C (configuration not stated)	> 100 µM	> 100 µM	> 100 µM	> 100 µM	> 100 µM	> 100 µM	> 100 µM	> 100 µM	> 100 µM	> 100 µM					
CCCCCCCCCCCCCCCCNc1ccn(C2CC(O)C(COC(c3ccccc3)(c3ccccc3)c3ccc(OC)cc3)O2)c(=O)n1 (configuration not stated)	> 100 µM	> 100 µM	> 100 µM	> 100 µM	> 100 µM	> 100 µM	> 100 µM	> 100 µM	> 100 µM	> 100 µM					
O=C1C(c2c(O)[nH]c3ccc(Br)cc23)=Nc2ccc(Br)cc21	> 100 µM	82.3 µM	> 100 µM	> 100 µM	63 µM	> 100 µM	> 100 µM		41.3 µM	> 100 µM					
Cc1nc2sc(C(=O)c3ccc(Cl)cc3)c(N)c2c(-c2ccccc2Cl)c1C(=O)Nc1ccccc1	67.7 µM	61 µM	43.5 µM	31.3 µM	29.5 µM	28.8 µM	47.9 µM	30.5 µM	29.7 µM	58.2 µM					
COc1cc(OC)c2c(c1)OC(c1cccnc1)C(c1ccccc1)C2=O (configuration not stated)	> 100 µM	> 100 µM	> 100 µM	> 100 µM	> 100 µM	> 100 µM	> 100 µM	> 100 µM	> 100 µM	> 100 µM					
Cc1c2c(n(CC(c3ccccc3)c3ccccc3)c1C)NN=C(C#N)S2(=O)=O	> 100 µM	> 100 µM	> 100 µM	> 100 µM	> 100 µM	> 100 µM	> 100 µM	> 100 µM	> 100 µM	> 100 µM					
c1ccc2c(c1)cc1n2CCc2c-1[nH]c1ccccc21	> 10 µM	> 10 µM	> 10 µM	> 10 µM	> 10 µM	> 10 µM	> 10 µM	> 10 µM	> 10 µM	> 10 µM					
Cc1ccc2c(c1)nc1n2C(N)=Nc2ccccc2S1	> 100 µM	> 100 µM	> 100 µM	> 100 µM	> 100 µM	> 100 µM	> 100 µM	> 100 µM	> 100 µM	> 100 µM					
CC(=O)OCC1OC(n2c(S)c(C#N)c(-c3ccccc3)c(C#N)c2=O)C(OC(C)=O)C(OC(C)=O)C1OC(C)=O (configuration not stated)	> 100 µM	> 100 µM	> 100 µM	> 100 µM and 52.8 µM	> 100 µM and 86.5 µM	> 100 µM	> 100 µM	> 100 µM and 70.9 µM	56.5 µM and 72.4 µM	> 100 µM and 57.7 µM	> 100 µM and 24.3 µM	> 100 µM and 28.3 µM	29.4 µM and > 100 µM	51.6 µM and 25.7 µM	> 100 µM and 32.1 µM
O=C(O)[C@H](CCC[C@H]1C(=O)O[C@H](c2ccccc2)[C@H](c2ccccc2)N1C(=O)OCc1ccccc1)N[C@@H](c1ccccc1)[C@H](O)c1ccccc1	> 100 µM	> 100 µM	> 100 µM	> 100 µM	53.1 µM	> 100 µM	81 µM	34.4 µM	55.1 µM	52.3 µM					
C(#CP(c1ccccc1)c1ccccc1)P(C#CP(c1ccccc1)c1ccccc1)c1ccccc1	> 100 µM	> 100 µM	> 100 µM	> 100 µM	> 100 µM	> 100 µM	97.6 µM	> 100 µM	> 100 µM	> 100 µM					
OC1(c2ccc(Cl)cc2)c2ccccc2-c2nc3ccccc3n21 (configuration not stated)	> 100 µM	> 100 µM	> 100 µM	> 100 µM	> 100 µM	> 100 µM	> 100 µM	> 100 µM	> 100 µM	> 100 µM					
CC1=CP(=O)(c2c(C(C)C)cc(C(C)C)cc2C(C)C)CCC1Cl (configuration not stated)	31.5 µM	37.1 µM	39.8 µM	41.8 µM	46.7 µM	35.3 µM	27.4 µM	32.9 µM	28.6 µM	23 µM					
CC(C)=CC[C@]12CCN(C)[C@H]1N(S(=O)(=O)c1ccccc1)c1ccccc12	> 100 µM	> 100 µM	> 100 µM	> 100 µM	> 100 µM	> 73.5 µM	> 100 µM	> 100 µM	> 100 µM	> 100 µM					
COc1nc2ccc(COc3ccc(C(=O)O)cc3)cc2nc1OC	> 100 µM	> 100 µM	> 100 µM	> 100 µM	> 100 µM	> 100 µM	> 100 µM	> 100 µM	53.4 µM	> 100 µM					
Nc1nc(Cl)c(Cl)c(NCC2(O)CCC2)n1	> 100 µM	> 100 µM	> 100 µM	> 100 µM	> 100 µM	> 100 µM	> 100 µM	> 100 µM	> 100 µM	> 100 µM					
COc1ccc(-c2c(-c3ccccc3)c(C)nc3nc(SC)nc(SC)c23)cc1OC	> 100 µM	> 100 µM	> 100 µM	> 100 µM	> 100 µM	16.2 µM	31.5 µM	23 µM	> 100 µM	2.6 µM					
CCC(C)C1=C(O)[N+]2([O-])Oc3ccc(-c4c(O)c(O)c(-c5ccc(OC(C)=O)cc5)c(OC(C)=O)c4OC(C)=O)cc3OC2(C(C)CC)C(=O)N1O (configuration not stated)	> 50 µM	> 50 µM	> 50 µM	> 50 µM	> 50 µM	> 50 µM	> 50 µM	> 50 µM		> 50 µM					
CC1OC2OC3C(OCC(O)C3O)OC(=O)[C@]34CCC(C)(C)CC3C3=CCC5[C@@]6(C)C[C@H](O)[C@H](OC7OC(CO)C(O)C(O)C7OC7OCC(OC(=O)CC(C)(O)CC(=O)OC1C(O)C2O)C(O)C7O)[C@@](C)(CO)C6CC[C@@]5(C)[C@]3(C)CC4 (some centres not stated)	18.3 µM	14.7 µM	19.2 µM	10.4 µM	13.8 µM	23.9 µM	12.4 µM	26 µM	18.4 µM	20.3 µM					
Cc1cc2nc3c(C#N)c4c(c(-c5ccc(Cl)cc5)n3c2cc1C)CCC4	59.5 µM	44 µM	70.3 µM	40.5 µM	88 µM	> 100 µM	39.8 µM	78.9 µM		45.7 µM					

SMILES	TGI (ACHN renal)	TGI (DU-145 prostate)	TGI (HCT-15 colon)	TGI (HT29 colon)	TGI (MDA-N)	TGI (NCI-H460 lung)	TGI (SF-295 CNS)	TGI (SF-539 CNS)	TGI (SNB-75 CNS)	TGI (SR leukemia)	GI50 (HT29 colon)	GI50 (MDA-N)	GI50 (SF-295 CNS)	GI50 (SF-539 CNS)	GI50 (SR leukemia)
COC(=O)C1OC(O[C@H]2CC[C@]3(C)[C@H]4CC=C5[C@@H]6CC(C)(C)CC[C@]6(C(=O)OC6OCC(O)C(O)C6OC6OC(C)C(OC7OCC(O)C(O)C7O)C(OC7OCC(O)(CO)C7O)C6O)[C@H](O)C[C@@]5(C)[C@]4(C)CC[C@H]3C2(C)C)C(O)C(O)C1O (some centres not stated)	10.1 µM	20.9 µM	22.2 µM	7.16 µM	4.14 µM	34.3 µM	15.9 µM	> 100 µM	19.5 µM	6.37 µM					
O=C1CSC(c2cccc(Cl)c2)N1c1ccc(-c2ccc(-n3c(-c4ccccc4)nc4ccccc4c3=O)cc2)cc1 (configuration not stated)	> 100 µM	> 100 µM	> 100 µM	> 100 µM	> 100 µM	> 100 µM	> 100 µM	> 100 µM		> 100 µM					
CCOC(=O)/C=C(\C(=O)OCC)n1cc(C)c(=O)n(Cc2cnnn2COCCOC(C)=O)c1=O	7.46 µM	48 µM	12 µM	21.2 µM	44 µM	35.6 µM	69.3 µM	6.89 µM	39.9 µM	> 34.7 µM					
C/C(=N\O)c1cccc[n+]1Cc1ccccc1	> 100 µM	> 100 µM	> 100 µM	> 100 µM	> 100 µM	> 100 µM	> 100 µM	> 100 µM	> 100 µM	> 100 µM					
O=C(SCc1cccc2ccccc12)c1ccc(Cl)cc1	> 100 µM	> 100 µM	> 100 µM	> 100 µM	> 100 µM	> 100 µM	> 100 µM	> 100 µM	> 100 µM	> 100 µM					
CC1=C(C)CC2(C=C(C(C)(C)C)C(=O)C(C(C)(C)C)=C2)SC1		> 100 µM		43 µM	90.3 µM	> 100 µM	31.4 µM	38 µM	34.2 µM	> 100 µM					
CN(CCc1ccccn1)C(=S)N/N=C(\c1ccccc1)c1ccccn1	1.92 µM	5.66 µM	12.8 µM	2.77 µM	8.51 µM	7.07 µM	2.7 µM		4.25 µM	15.9 µM					
O=C(NO)NCCCl	> 100 µM	> 100 µM	> 100 µM	> 100 µM	> 100 µM	> 100 µM	> 100 µM	> 100 µM	> 100 µM	> 100 µM					
Cn1cc(S(=O)(=O)NC(=O)Nc2ccc(Cl)cc2)c(=O)c2ccc(F)cc21	> 100 µM	> 100 µM	> 100 µM	> 100 µM	> 100 µM	> 100 µM	> 100 µM	> 100 µM	> 100 µM	> 100 µM					
CC(=O)OC1[C@H](OC(C)=O)C2=C(C)[C@@H](OC(C)=O)C[C@@]2(C(C)(C)O)[C@@H](OC(C)=O)[C@H]2[C@@]1(C)[C@@H](OC(C)=O)CC(OC(C)=O)[C@]21CO1 (some centres not stated)	> 100 µM	> 100 µM	> 100 µM	> 100 µM	> 100 µM		> 100 µM	> 100 µM	> 100 µM	> 100 µM					
COc1ccccc1C(=O)NCC1CCCN2CCCCC12 (configuration not stated)	> 100 µM	> 100 µM	> 100 µM	> 100 µM	> 100 µM	> 100 µM	> 100 µM	> 100 µM	> 100 µM	> 100 µM					
CC(=O)OCC1OC(n2c(Br)nc3c2c(=O)n(C)c(=O)n3C)C(OC(C)=O)C1OC(C)=O (configuration not stated)	> 100 µM	> 100 µM	> 100 µM	> 100 µM	> 100 µM	> 100 µM	> 100 µM	> 100 µM	> 100 µM	> 100 µM					
N/C1=C/C(=O)NC(=O)c2c(c3ccccc3oc2=O)C1	> 100 µM	> 100 µM	> 100 µM	> 100 µM	> 100 µM	> 100 µM			> 100 µM	> 100 µM					
C(=Nc1ccc(-c2nc3ccccc3s2)cc1)c1ccc[nH]1	60.7 µM	34.5 µM	38.7 µM	38.8 µM	33.6 µM	38.1 µM	27.9 µM	37.3 µM	55.7 µM	49.5 µM					
Cc1cccc(CC(Cc2ccc(C)cc2C(=O)O)C(=O)O)c1 (configuration not stated)	> 100 µM	> 100 µM	> 100 µM	> 100 µM	> 100 µM	> 100 µM	> 100 µM	> 100 µM	> 100 µM	> 100 µM					
C=C1C(=O)O[C@H]2C[C@@H]1[C@@H](O)[C@H](O)[C@@H](C)CCCC(C)=CCC[C@@]2(C)O	27.8 µM	> 100 µM	> 100 µM		54.6 µM	54.1 µM	> 100 µM	30.1 µM	> 100 µM	> 100 µM					
CCOC(=O)c1c(SC(=O)c2ccc(OC)cc2)n(-c2ccccc2)c(=S)n(-c2ccccc2)c1=O	> 100 µM	> 100 µM	47.8 µM	> 100 µM	> 100 µM	> 100 µM	> 100 µM	42.2 µM	> 100 µM	> 100 µM					
O=C(O)c1nc2ccc(C(F)(F)F)cc2nc1Nc1ccc(F)cc1	> 100 µM	85 µM	70.2 µM	> 100 µM	79.6 µM	50.9 µM	37.7 µM		60 µM	36.8 µM					
NCCN1C(=O)c2ccccc2C1c1ccc(Cl)cc1 (configuration not stated)	> 100 µM	> 100 µM	> 100 µM	> 100 µM	> 100 µM	> 100 µM	> 100 µM	> 100 µM	> 100 µM	> 100 µM					
COC(=O)C1(SC)C2CCC3C2CCC31 (configuration not stated)	> 100 µM	> 100 µM	> 100 µM		> 100 µM	> 100 µM	> 100 µM	> 100 µM	> 100 µM	> 100 µM					

Reference: PubChem BioAssay (NCI)
